In the supplement of paper PMC11451515:

Key:
Settings in all cases: 48 h
NOMO1 [1] = assay: cell viability relative to DMSO control; higher = less cytotoxic
Summary of the method: (§1)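 Before seeding, each leukemia line was adapted for at least four passages in each medium. NOMO1 or SEM cells (500 cells/well) and P12-Ichikawa cells (1000 cells/well) went into 1536-well plates at 5 μl, then received library compounds in DMSO by pin dosing across 11 threefold concentrations, 47 μM to 0.79 nM. Readout was CellTiter-Glo One luminescence after 48 h at 37°C, and viability is given as a per-plate percentage of DMSO wells, with cell-free wells as background.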

P12-Ichikawa [2] = assay: as above
Summary of the method: as §1

SEM cells [3] = assay: as above
Summary of the method: as §1

NOMO1 [4] = assay: AUC of viability dose-response curve (% viability x log10 dose units); higher = less sensitive
Summary of the method: (§2)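 Leukemia cells adapted to each medium were seeded in 1536-well plates (500 or 1000 cells/well) and given library compounds in DMSO for 48 h at 37°C. The 11 threefold doses spanned 47 μM to 0.79 nM, and CellTiter-Glo One luminescence was normalised per plate to DMSO and cell-free wells before four-parameter log-logistic fitting on log10 dose. Area under the curve was integrated with the trapezoidal rule, scaling curves above full viability and removing curves that failed quality control.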

P12-Ichikawa [5] = assay: as above
Summary of the method: as §2

SEM cells [6] = assay: as above
Summary of the method: as §2

O=C(O)c1cccc(-c2noc(-c3ccccc3F)n2)c1
cell viability [%]
Settings | NOMO1 [1] | P12-Ichikawa [2] | SEM cells [3]
HPLM + 10% dialyzed FBS, 0.000781 µM | 106 | 99.7 | 106
HPLM + 10% dialyzed FBS, 0.00234 µM | 111 | 106 | 109
HPLM + 10% dialyzed FBS, 0.00702 µM | 100 | 104 | 92.3
HPLM + 10% dialyzed FBS, 0.0211 µM | 133 | 100 | 100
HPLM + 10% dialyzed FBS, 0.0632 µM | 112 | 102 | 101
HPLM + 10% dialyzed FBS, 0.19 µM | 121 | 105 | 110
HPLM + 10% dialyzed FBS, 0.569 µM | 109 | 102 | 102
HPLM + 10% dialyzed FBS, 1.71 µM | 107 | 98.6 | 104
HPLM + 10% dialyzed FBS, 5.12 µM | 110 | 101 | 104
HPLM + 10% dialyzed FBS, 15.4 µM | 96.8 | 100 | 92.3
HPLM + 10% dialyzed FBS, 46.1 µM | 101 | 95.3 | 88.1
RPMI 5 mM glucose + 10% FBS, 0.000781 µM | 86.3 | 96.5 | 88.1
RPMI 5 mM glucose + 10% FBS, 0.00234 µM | 90.6 | 98.2 | 94.7
RPMI 5 mM glucose + 10% FBS, 0.00702 µM | 106 | 97.5 | 105
RPMI 5 mM glucose + 10% FBS, 0.0211 µM | 103 | 106 | 94.1
RPMI 5 mM glucose + 10% FBS, 0.0632 µM | 86.2 | 106 | 99.6
RPMI 5 mM glucose + 10% FBS, 0.19 µM | 98 | 106 | 107
RPMI 5 mM glucose + 10% FBS, 0.569 µM | 99.6 | 101 | 101
RPMI 5 mM glucose + 10% FBS, 1.71 µM | 94.7 | 98.7 | 99.3
RPMI 5 mM glucose + 10% FBS, 5.12 µM | 94.2 | 90.9 | 98.3
RPMI 5 mM glucose + 10% FBS, 15.4 µM | 91.9 | 93 | 84.3
RPMI 5 mM glucose + 10% FBS, 46.1 µM | 89.9 | 92.7 | 73.5
RPMI 5 mM glucose + 10% dialyzed FBS, 0.000781 µM | 93.2 | 102 | 87.1
RPMI 5 mM glucose + 10% dialyzed FBS, 0.00234 µM | 101 | 105 | 106
RPMI 5 mM glucose + 10% dialyzed FBS, 0.00702 µM | 101 | 94.9 | 106
RPMI 5 mM glucose + 10% dialyzed FBS, 0.0211 µM | 95.2 | 103 | 108
RPMI 5 mM glucose + 10% dialyzed FBS, 0.0632 µM | 96.6 | 103 | 115
RPMI 5 mM glucose + 10% dialyzed FBS, 0.19 µM | 98.9 | 97.1 | 94.2
RPMI 5 mM glucose + 10% dialyzed FBS, 0.569 µM | 112 | 95.1 | 122
RPMI 5 mM glucose + 10% dialyzed FBS, 1.71 µM | 95.8 | 102 | 112
RPMI 5 mM glucose + 10% dialyzed FBS, 5.12 µM | 103 | 90.6 | 108
RPMI 5 mM glucose + 10% dialyzed FBS, 15.4 µM | 87.8 | 102 | 95.7
RPMI 5 mM glucose + 10% dialyzed FBS, 46.1 µM | 81.3 | 98.7 | 85.7

AUC of viability dose-response curve
Settings | NOMO1 [4] | P12-Ichikawa [5] | SEM cells [6]
HPLM + 10% dialyzed FBS | 456 | 470 | 454
RPMI 5 mM glucose + 10% FBS | 451 | 465 | 457
RPMI 5 mM glucose + 10% dialyzed FBS | 465 | 465 | 472

O=C1\C=C(OC2=C(C=CC=C12)C3=CC=CC4=C3SC5=C4C=CC=C5)\N6CCOCC6
cell viability [%]
Settings | NOMO1 [1] | P12-Ichikawa [2] | SEM cells [3]
HPLM + 10% dialyzed FBS, 0.000781 µM | 123 | 119 | 110
HPLM + 10% dialyzed FBS, 0.00234 µM | 123 | 125 | 103
HPLM + 10% dialyzed FBS, 0.00702 µM | 129 | 127 | 121
HPLM + 10% dialyzed FBS, 0.0211 µM | 128 | 129 | 120
HPLM + 10% dialyzed FBS, 0.0632 µM | 135 | 137 | 124
HPLM + 10% dialyzed FBS, 0.19 µM | 121 | 130 | 115
HPLM + 10% dialyzed FBS, 0.569 µM | 135 | 130 | 107
HPLM + 10% dialyzed FBS, 1.71 µM | 133 | 131 | 104
HPLM + 10% dialyzed FBS, 5.12 µM | 114 | 129 | 96.9
HPLM + 10% dialyzed FBS, 15.4 µM | 132 | 132 | 89.9
HPLM + 10% dialyzed FBS, 46.1 µM | 112 | 121 | 91.2
RPMI 5 mM glucose + 10% FBS, 0.000781 µM | – | – | 133
RPMI 5 mM glucose + 10% FBS, 0.00234 µM | – | – | 104
RPMI 5 mM glucose + 10% FBS, 0.00702 µM | – | – | 105
RPMI 5 mM glucose + 10% FBS, 0.0211 µM | – | – | 138
RPMI 5 mM glucose + 10% FBS, 0.0632 µM | – | – | 109
RPMI 5 mM glucose + 10% FBS, 0.19 µM | – | – | 112
RPMI 5 mM glucose + 10% FBS, 0.569 µM | – | – | 112
RPMI 5 mM glucose + 10% FBS, 1.71 µM | – | – | 114
RPMI 5 mM glucose + 10% FBS, 5.12 µM | – | – | 73
RPMI 5 mM glucose + 10% FBS, 15.4 µM | – | – | 60.2
RPMI 5 mM glucose + 10% FBS, 46.1 µM | – | – | 62.7
RPMI 5 mM glucose + 10% dialyzed FBS, 0.000781 µM | 113 | – | 129
RPMI 5 mM glucose + 10% dialyzed FBS, 0.00234 µM | 121 | – | 109
RPMI 5 mM glucose + 10% dialyzed FBS, 0.00702 µM | 125 | – | 116
RPMI 5 mM glucose + 10% dialyzed FBS, 0.0211 µM | 131 | – | 123
RPMI 5 mM glucose + 10% dialyzed FBS, 0.0632 µM | 128 | – | 116
RPMI 5 mM glucose + 10% dialyzed FBS, 0.19 µM | 129 | – | 123
RPMI 5 mM glucose + 10% dialyzed FBS, 0.569 µM | 133 | – | 122
RPMI 5 mM glucose + 10% dialyzed FBS, 1.71 µM | 136 | – | 113
RPMI 5 mM glucose + 10% dialyzed FBS, 5.12 µM | 116 | – | 78.5
RPMI 5 mM glucose + 10% dialyzed FBS, 15.4 µM | 117 | – | 75.7
RPMI 5 mM glucose + 10% dialyzed FBS, 46.1 µM | 107 | – | 76

AUC of viability dose-response curve
Settings | NOMO1 [4] | P12-Ichikawa [5] | SEM cells [6]
HPLM + 10% dialyzed FBS | 474 | 471 | 446
RPMI 5 mM glucose + 10% FBS | 464 | 456 | 425
RPMI 5 mM glucose + 10% dialyzed FBS | 467 | 469 | 432

CNC(=O)c1nn(C)c2c1C(C)(C)Cc1cnc(Nc3ccc(N4CCN(C)CC4)cc3)nc1-2
cell viability [%]
Settings | NOMO1 [1] | P12-Ichikawa [2] | SEM cells [3]
HPLM + 10% dialyzed FBS, 0.000781 µM | 125 | 106 | 108
HPLM + 10% dialyzed FBS, 0.00234 µM | 108 | 107 | 101
HPLM + 10% dialyzed FBS, 0.00702 µM | 104 | 112 | 103
HPLM + 10% dialyzed FBS, 0.0211 µM | 104 | 105 | 93
HPLM + 10% dialyzed FBS, 0.0632 µM | 99.7 | 108 | 89.1
HPLM + 10% dialyzed FBS, 0.19 µM | 113 | 111 | 64.6
HPLM + 10% dialyzed FBS, 0.569 µM | 103 | 108 | 39.3
HPLM + 10% dialyzed FBS, 1.71 µM | 65.8 | 83.7 | 16
HPLM + 10% dialyzed FBS, 5.12 µM | 55.6 | 76 | 12
HPLM + 10% dialyzed FBS, 15.4 µM | 47.8 | 36.7 | 7.99
HPLM + 10% dialyzed FBS, 46.1 µM | 8.74 | 35.6 | 7.09
RPMI 5 mM glucose + 10% FBS, 0.000781 µM | 111 | 113 | 115
RPMI 5 mM glucose + 10% FBS, 0.00234 µM | 114 | 113 | 97.1
RPMI 5 mM glucose + 10% FBS, 0.00702 µM | 103 | 119 | 113
RPMI 5 mM glucose + 10% FBS, 0.0211 µM | 107 | 123 | 104
RPMI 5 mM glucose + 10% FBS, 0.0632 µM | 115 | 117 | 86.5
RPMI 5 mM glucose + 10% FBS, 0.19 µM | 111 | 120 | 67.4
RPMI 5 mM glucose + 10% FBS, 0.569 µM | 100 | 109 | 48.8
RPMI 5 mM glucose + 10% FBS, 1.71 µM | 86.6 | 79 | 13.8
RPMI 5 mM glucose + 10% FBS, 5.12 µM | 78.8 | 65.4 | 8.18
RPMI 5 mM glucose + 10% FBS, 15.4 µM | 48.3 | 44.8 | 5.66
RPMI 5 mM glucose + 10% FBS, 46.1 µM | 13.2 | 26.4 | 2.21
RPMI 5 mM glucose + 10% dialyzed FBS, 0.000781 µM | 113 | 107 | 97.9
RPMI 5 mM glucose + 10% dialyzed FBS, 0.00234 µM | 102 | 119 | 101
RPMI 5 mM glucose + 10% dialyzed FBS, 0.00702 µM | 107 | 123 | 101
RPMI 5 mM glucose + 10% dialyzed FBS, 0.0211 µM | 106 | 123 | 110
RPMI 5 mM glucose + 10% dialyzed FBS, 0.0632 µM | 118 | 110 | 78.6
RPMI 5 mM glucose + 10% dialyzed FBS, 0.19 µM | 108 | 115 | 69.5
RPMI 5 mM glucose + 10% dialyzed FBS, 0.569 µM | 103 | 95.9 | 47.2
RPMI 5 mM glucose + 10% dialyzed FBS, 1.71 µM | 75.6 | 77.1 | 16.8
RPMI 5 mM glucose + 10% dialyzed FBS, 5.12 µM | 66 | 61.9 | 9.79
RPMI 5 mM glucose + 10% dialyzed FBS, 15.4 µM | 46.8 | 36.1 | 7.03
RPMI 5 mM glucose + 10% dialyzed FBS, 46.1 µM | 8.73 | 35.3 | 4.75

AUC of viability dose-response curve
Settings | NOMO1 [4] | P12-Ichikawa [5] | SEM cells [6]
HPLM + 10% dialyzed FBS | 371 | 404 | 269
RPMI 5 mM glucose + 10% FBS | 400 | 384 | 265
RPMI 5 mM glucose + 10% dialyzed FBS | 386 | 376 | 275
